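Five concentrations, 48 hours, 96-well plates. The concentration for full growth arrest is given as TGI.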
Assays:
Assay in all cases: NCI anticancer screen, dose series, 48 h
[1] = test system: 786-0 renal
[2] = test system: BT-549 breast
[3] = test system: CCRF-CEM leukemia
[4] = test system: EKVX NSCLC
[5] = test system: HCT-15 colon
[6] = test system: HOP-62 NSCLC
[7] = test system: HS 578T breast
[8] = test system: KM12 colon
[9] = test system: MDA-N
[10] = test system: OVCAR-3 ovarian
[11] = test system: OVCAR-4 ovarian
[12] = test system: RXF 393 renal
[13] = test system: SF-295 CNS
[14] = test system: SF-539 CNS
[15] = test system: SN12C renal
[16] = test system: SR leukemia
[17] = test system: HOP-92 NSCLC
[18] = test system: NCI-H522 lung
[19] = test system: SK-MEL-2 melanoma

Row | SMILES | TGI [1] [µM] | TGI [2] [µM] | TGI [3] [µM] | TGI [4] [µM] | TGI [5] [µM] | TGI [6] [µM] | TGI [7] [µM] | TGI [8] [µM] | TGI [9] [µM] | TGI [10] [µM] | TGI [11] [µM] | TGI [12] [µM] | TGI [13] [µM] | TGI [14] [µM] | TGI [15] [µM] | TGI [16] [µM] | TGI [17] [µM] | TGI [18] [µM] | TGI [19] [µM]
1 | COc1ccccc1C(C1=C(O)COC1=O)c1cc2c(cc1OC(C)=O)OCO2 (stereo not given) | > 100 | > 100 | > 100 | > 100 | > 100 | > 100 | > 100 | > 100 | > 100 | > 100 | > 100 | > 100 | > 100 | > 100 | > 100 | > 100 |  |  | 
2 | COC1=NC(NC2OCC(O)C(O)C2O)=C(NC(C)=O)CN1C (stereo not given) | > 100 | > 100 | > 100 | > 100 | > 100 |  | > 100 | > 100 | > 100 | > 100 | > 100 | > 100 | > 100 | > 100 |  |  | > 100 | > 100 | > 100
3 | CN(c1ccccc1)S(=O)(=O)c1ccccc1[N+](=O)[O-] | > 100 | > 100 | > 100 | > 100 | > 100 | > 100 | > 100 | > 100 | > 100 | > 100 | > 100 | > 100 | > 100 | > 100 | > 100 | > 100 |  | > 100 | > 100
4 | O=C1c2cccnc2S(=O)N1Cc1ccccc1 (stereo not given) | > 100 | > 100 | > 100 | > 100 | > 100 |  | > 100 | > 100 | > 100 |  | > 100 | > 100 | > 100 | > 100 | > 100 | > 100 | > 100 | > 100 | 
5 | N#CC1=C(S)N(C2OC(CO)C(O)C(O)C2O)C(c2ccccc2)=CC1c1ccccc1 (stereo not given) | > 100 | > 100 | > 100 |  | > 100 | > 100 | > 100 | > 100 | > 100 | 98.5 | > 100 | 92.7 | > 100 | > 100 | > 100 | > 100 | > 100 | > 100 | 
6 | COc1ccc(C(=O)N2CCc3c([nH]c4ccccc34)C2C(=O)O)o1 (stereo not given) | > 10 | > 10 | > 10 | > 10 | > 10 | > 10 | > 10 | > 10 | > 10 | > 10 | > 10 |  | > 10 | > 10 | > 10 | > 10 | > 10 |  | 
7 | CC(=O)OCCCCn1cnc2nc(Nc3ccccc3)nc(Cl)c21 | > 100 | > 100 | > 100 | > 100 | > 100 | > 100 | > 100 | > 100 | > 100 | > 100 | > 100 | > 100 | > 100 | > 100 | > 100 | > 100 | > 100 |  | > 100
8 | CCCCOC(=O)C1CN2C=CC=NC2=NC1(C(F)(F)F)C(F)(F)F (stereo not given) | > 100 | > 100 | > 100 | > 100 | > 100 | > 100 | > 100 | > 100 | > 100 | > 100 | > 100 | > 100 | > 100 | > 100 | > 100 |  | > 100 |  | > 100
9 | C=CC1ON(C)CCc2cc(OC)c(OC)cc21 (stereo not given) | > 100 | > 100 | > 100 | > 100 | > 100 | > 100 | > 100 | > 100 | > 100 | > 100 |  |  | > 100 | > 100 | > 100 | > 100 | > 100 | > 100 | 
10 | O=c1[nH]c(-c2cccc(F)c2)nc2ccccc12 | > 100 | > 68.8 | > 100 | > 100 | > 100 | 52.4 | > 78.5 | > 100 | > 100 | > 100 | > 65.9 | 89.4 | > 72.7 |  | > 92 | > 100 | > 72 | > 100 | > 100
11 | CC(=O)OCC1OC(n2c(C)c(N=Nc3ccccc3)c(C)c(C#N)c2=S)C(OC(C)=O)C(OC(C)=O)C1OC(C)=O (stereo not given) | 22.7 | > 100 | > 100 |  |  | 34.5 | 44.8 | > 100 | > 100 | > 100 | > 100 | 32.4 | 44.1 | > 100 | > 100 | > 100 | 28 |  | 62.2
12 | CCOC(=O)n1[nH]c(=O)n(-c2ccccc2)c1=O | > 100 | > 100 | > 100 | > 100 | > 100 | > 100 | > 100 | > 100 | > 100 | > 100 | > 100 | > 100 | > 100 |  | > 100 | > 100 |  |  | > 100
13 | Cn1c(=O)[nH]c2[nH]c3ccccc3c2c1=O | > 100 | > 100 | > 100 | > 100 | > 100 | > 100 | > 100 | > 100 | > 100 | > 100 |  | > 100 | > 100 | > 100 | > 100 | > 100 | > 100 | > 100 | > 100
14 | Cc1ccc(S(=O)(=O)OC2=C/C(=N\c3onc(C)c3C)c3ccccc3C2=O)cc1 | > 100 | 71.9 |  | > 100 | > 100 | 54.8 | > 100 | 43 | > 100 | 30.1 | 29.9 |  | > 100 | 79 | 37.4 | > 100 | 33.2 | 21.1 | 26

Reference: PubChem BioAssay (NCI)
